From patent publication US20140377390A1, “Cosmetic Compositions Comprising Plant Extracts for Combating Skin Aging” (CASTER, priority 2013, published 2014)
[ ]: non-standard residue; d: D form. Cit = NC(=O)NCCC[C@H](N)C(=O)O

Key:
[1] = system: MDR (Multidrug Resistance Proteins) in HDFa cells; test: MDR activity test (calcein retention, Vybrant MDR Resistance Assay Kit); conditions: 24 hours, control = 100%
Source text: In normal cells, non-fluorescent calcein enters the cell and accumulates therein. It is hydrolysed therein by endogenous esterases, and becomes fluorescent. In cells in which MDR expression is increased, the presence of these protein transporters makes it possible to expel the calcein out of the cell before it is cleaved: there is no fluorescence.
To do this, the Molecular Probes Vybrant MDR Resistance Assay Kit (V13180 Invitrogen Life Science) is used.
These cells are then in passage 4. The cells are left to stand for 48 h for adhesion in an incubator at 37° C. and 5% CO2. […] This stock solution at 10 mg/ml is then diluted in PBS until the working concentration is obtained; • 5 wells with FGF (Sigma) at 5 nM final concentration in the well (positive control) or KGF (Sigma) at 25 ng/ml.
The cells comprising active agents are incubated at 37° C., 5% CO2 for 24 hours.
On D3, a labelling solution is prepared by diluting the calcein solution of the kit at 1 mM (component A of the Invitrogen Life Science kit V13180) in PBS, so as to achieve a concentration of 1 μM (1000× dilution); 50 μl of calcein diluted to 1 μM are provided per well, i.e. 5 ml per 96-well plate. […]
The calcein retention is measured on a Perkin Elmer Enspire® Multimode Reader fluorescence spectrophotometer, by reading the fluorescein fluorescence (λexcitation: 494 nm, λemission: 512 nm). […]

[2] = system: primary human fibroblast cells (HDFa); test: Evaluation of cytotoxicity, MTT colorimetric test (cell vitality); type: cell-based; conditions: relative to untreated cells = 100%
Source text: This test serves to define the maximum tolerable dose that can be used on the cells without a toxic effect, by means of a rapid and sensitive quantification of the cell proliferation and of the cell viability as a function of the compositions according to the invention.
Briefly, the colorimetric test is based on the activity of a mitochondrial enzyme, succinate dehydrogenase, which degrades the yellow substrate MTT (3-[4,5-dimethylthiazol-2-yl]-2,5-diphenyltetrazolium bromide) into formazan crystals (violet). The amount of formazan salt produced by the cells from the MTT indicates the cell vitality and is measured by spectrophotometry at 570 nm.
In passage 3, the cells were seeded into 96-well plates in a proportion of 2000 cells in a volume of 200 μl of culture medium (Tebu-Bio—Fibroblast Growth Medium—500 ml—Ref 95116500).
On day 7 after seeding of the cells (the medium having been replaced with fresh medium every two days), the culture medium (Tebu-Bio—Fibroblast Growth Medium—500 ml—Ref. 95116500) is removed and 200 μl of the active agent to be tested, diluted in culture medium (no less than 50% of medium), are added and then the cells are reincubated (37° C., 5% CO2).
On the day of the test, 2 ml of fresh MTT solution are prepared by diluting the MTT powder (Thiazolyl Blue Tetrazolium Bromide, Sigma ref. M 5655) to 5 mg/ml in PBS.
20 μl of MTT solution are added to each well. After homogenization, the plate is reincubated (37° C., 5% CO2) for 3 to 4 hours so as to allow metabolization of the MTT.
During this time, the MTT solubilization solution is prepared (DMSO/Isopropanol—1:1). The culture medium is removed by suctioning, and then the plate is dried with absorbent paper. The formazan crystals which have formed are then resuspended with 150 μl of MTT solubilization solution, by agitation at 150 rpm for 15 minutes at ambient temperature.
The optical density is then read at 570 nm on a Perkin Elmer Enspire® Multimode Reader spectrophotometer, with the OD at 670 nm (background noise) being removed.
The result is expressed as a function of the % absorption relative to the % absorption noted for the control cells (not treated with a compound).

In the case of `COc1ccc(CCN(C)CCCC(C#N)(c2ccc(OC)c(OC)c2)C(C)C)cc1OC` (centres unmarked) [Verapamil, verapamil, reference compound], the “% calcein retention” value ([1]; 30 μg/ml, greater than 100 = inhibits MDR activity) is reported as 139.1%.

In the case of H-KDV[Cit]-NH2 [Peptide], the “% vitality” value ([2]; peptide concentration 0.000001%) is reported as 94.6%, the “% vitality” value ([2]; peptide concentration 0.00001%) is reported as 71.0% and the “% vitality” value ([2]; peptide concentration 0.00002%) is reported as 66.9%. For the same molecule, the “% vitality” value ([2]; peptide concentration 0.00004%) was 72.0%, the “% vitality” value ([2]; peptide concentration 0.00006%) was 44.7% and the “% vitality” value ([2]; peptide concentration 0.00008%) was 57.3%. The “% vitality” value ([2]; peptide concentration 0.0001%) was 39.8%, the “% vitality” value ([2]; peptide concentration 0.0002%) was 47.6% and the “% vitality” value ([2]; peptide concentration 0.005%) was 49.7%.

B1: KGF: KGF (Sigma), growth factor, positive control (protein, UniProt P21781 32-194, looked up)
Fibroblast growth factor 7: CNDMTPEQMATNVNCSSPERHTRSYDYMEGGDIRVRRLFCRTQWYLRIDKRGKVKGTQEMKNNYNIMEIRTVAVGIVAIKGVESEFYLAMNKEGKLYAKKECNEDCNFKELILENHYNTYASAKWTHNGGEMFVALNQKGIPVRGKKTKKEQKTAHFLPMAIT
With B1 the “% calcein retention” value ([1]; 25 ng/ml, less than 100 = stimulates MDR activity) was 92.3%.
